Measurements reported in patent US9011853B2, “B7-H4 fusion proteins and methods of use thereof” (Amplimmune, Inc., priority 2009, dated 2015).

Legend:
CTLA4 KD/NOD mice = assay: Autoimmune diabetes in CTLA4 KD/NOD mice; format: in vivo, mouse; conditions: 15 mg/kg i.p. 3 times per week for 4 weeks from age 2 weeks; mice 24 weeks old (22 weeks post treatment) (FIG. 49)
Procedure: Both female and male CTLA4 KD/NOD mice (Chen et al., PNAS, 103(44):16400-16405 (2006)) at age of 2 weeks were randomly assigned into experimental groups: vehicle (11 mice), and B7-H4-Ig (12 mice). Mice were treated with B7-H4-Ig 3 times per week for 4 weeks (15 mg/kg, per i.p. injection), and monitored 3 times per week for glucose content in the urine first with Diastix. […] Diabetes was determined when blood glucose reached ≧600 mg/dL.

CTLA4KD/BDC2.5/NOD mice = assay: Autoimmune diabetes in CTLA4KD/BDC2.5/NOD mice; format: in vivo, mouse
Procedure: CTLA4 KD/NOD mice (Chen, et al., PNAS (2006)) were bred with BDC2.5 TCR transgenic mice (Katz, et al., Cell, 74(6):1089-100 (1993)). Both female and male mice at age of 11 weeks were randomly assigned into experimental groups: vehicle (3 mice), and B7-H4-Ig (5 mice). Mice were treated with B7-H4-Ig 3 times per week for 4 weeks (15 mg/kg, per i.p. injection), and monitored 3 times per week for glucose content in the urine first with Diastix. […] Diabetes was determined when blood glucose reached ≧600 mg/dL.

[1] = test system: CD4^+CD62L^+ naïve T cells; assay: In vitro Th17 polarization: proliferation and cytokine production; format: cell-based, mouse; conditions: 0, 0.1, 1 or 10 μg/mL in solution
Procedure: Mouse splenocytes were first removed isolated from DO11.10 mice, which express an MHC class II restricted T cell receptor specific for OVA323-339. Mouse CD4^+ T cells were purified using a Miltenyi CD4^+ T cell negative isolation kit (Cat#130-090-860). Naïve CD4^+ T cells were further purified using the Miltenyi anti-CD62L positive selection magnetic beads (cat#130-049-701).
CD4^+ CD62L^+ naïve T cells with or without CD25^+ T cells were cultured in serum free HL-1 media in the presence of rTGF-β (10 ng/mL), IL-6 (50 ng/mL), IL-23 (4 ng/mL), anti-IL-4 (1 μg/mL), anti-IFN-γ (1 μg/mL) and anti-IL-2 (1 μg/mL). To provide murine B7-H4-Ig in an immobilized format, 96-well flat bottom plates were first coated with murine B7-H4-Ig, 100 μl per well at 1 μg/mL, and incubated at 37° C. for 2 hours. […] For non-specific antigen activation, Mouse CD3/CD28 T Cell Expander beads (Dynabeads®; Invitrogen, Cat#11452D) was added into each well, at a 1:1 cell to bead ratio. […]
[^3H]-Thymidine (1 μCi/well) was added into each well 24 hr post co-incubation. Proliferation was determined by uptake of [^3H]-thymidine detected at 48 hr post [^3H]-thymidine addition using a Topcount Microplate Scintillation Counter (Packard Instruments, Meridan, Conn.). Results are expressed as the mean of triplicate cultures±SEM. […]

Substance | diabetes development (blood glucose ≧600 mg/dL) (CTLA4 KD/NOD mice) | autoimmune diabetes (blood glucose ≧600 mg/dL) (CTLA4KD/BDC2.5/NOD mice; 15 mg/kg i.p. 3 times per week for 4 weeks from age 11 weeks (FIG. 50)) | age until which treated mice did not develop diabetes (CTLA4KD/BDC2.5/NOD mice; 15 mg/kg i.p. 3 times per week for 4 weeks from age 11 weeks, 10 weeks post treatment) [weeks old] | IL-17 production in Th17 cells ([1]; anti-CD3/CD28 beads (FIG. 28)) | murine Th17 proliferation ([1]; anti-CD3/CD28 beads, dose dependent (FIG. 26))
B7-H4-Ig: B7-H4 extracellular domain fused to Ig Fc; bare label is the human protein in Example 3, murine protein in Examples 1, 2, 5, 7-11 | did not develop diabetes | delayed autoimmune diabetes | 21 | – | –
Human B7-H4-Ig: human B7-H4 extracellular domain fused to hinge, CH2 and CH3 regions of human immunoglobulin Cγ1 chain; representative SEQ ID NOs:114-137 | – | – | – | reduced | blocked murine Th1/Th17 proliferation
